Publication PMC4159853 (2014)

What was measured:
[1] = system: R12.23 (DNA, aptamer) TGTACCGTCTGAGCGATTCGTACGAACGGCTTTGTACTGTTTGCACTGGCGGATTTAGCCAGTCAGTGTTAAGGAGTGC; assay: competitive elution of fluorescent ssDNA from target beads; conditions: 100 mM NaCl, 2 mM MgCl2; 20 mM Tris-HCl, 10% methanol; 100 µM eluent, 5 nM ssDNA; buffer alone 0.15; from immobilised desethyl atrazine
[2] = system: R12.57 (DNA, aptamer) TGTACCGTCTGAGCGATTCGTACGGATTGGGTTTGCACTTTACCTGCGGTGCATCGCAGCCAGTCAGTGTTAAGGAGTGC; assay: fluorescence saturation bead-based binding assay; conditions: 100 mM NaCl, 2 mM MgCl2; immobilised compound; 20 mM Tris-HCl, 10% methanol; reported as Kd for atrazine; some non-specific bead binding
[3] = system: R12.28 (DNA, aptamer) TGTACCGTCTGAGCGATTCGTACCATTAGTGGGTGCTCCTTACCTGATGGTCATCTAGCCAGTCAGTGTTAAGGAGTGC; assay: fluorescence saturation bead-based binding assay; conditions: 100 mM NaCl, 2 mM MgCl2; immobilised compound; 20 mM Tris-HCl, 10% methanol; reported as Kd for atrazine; some non-specific bead binding
[4] = system: R12.23 (DNA, aptamer) TGTACCGTCTGAGCGATTCGTACGAACGGCTTTGTACTGTTTGCACTGGCGGATTTAGCCAGTCAGTGTTAAGGAGTGC; assay: fluorescence saturation bead-based binding assay; conditions: 100 mM NaCl, 2 mM MgCl2; immobilised compound; 20 mM Tris-HCl, 10% methanol; reported by authors as Kd for atrazine
[5] = system: 34-base truncation of R12.23 (DNA, aptamer) TACTGTTTGCACTGGCGGATTTAGCCAGTCAGTG; assay: bead capture from processed river water, capillary electrophoresis quantification; conditions: 100 mM NaCl, 2 mM MgCl2; 20 mM Tris-HCl; extract of river water spiked with 40 nM; 37% (1.5 nmol) recovered

O=C(O)COc1ccc(Cl)cc1Cl
Normalized Average Fluorescence [1]: 0.64 ± 0.11

CCC(=O)Nc1ccc(Cl)c(Cl)c1
Normalized Average Fluorescence [1]: 0.65 ± 0.13

Nc1nc(N)nc(Cl)n1
Normalized Average Fluorescence [1]: 0.47 ± 0.10

CC(C)Nc1nc(N)nc(Cl)n1
Normalized Average Fluorescence [1]: −0.054 ± 0.44

CCNc1nc(Cl)nc(NCC)n1
Normalized Average Fluorescence [1]: 0.47 ± 0.14

CC(C)Nc1nc(Cl)nc(NC(=O)CCCCCNC(=O)CCCC[C@@H]2SC[C@@H]3NC(=O)N[C@@H]32)n1
Kd [2]: 20.78 ± 4.74 nM
Kd [3]: 5.10 ± 1.32 nM
Kd [4]: 0.62 ± 0.21 nM

CCNc1nc(Cl)nc(NC(C)C)n1
Normalized Average Fluorescence [1]: 1 ± 0.11
binding [5]: yes
